Results on 15 compounds are retold here after ChEMBL document CHEMBL1255238, “Induction of erm(C) expression by noninducing antibiotics” (2008).

The MIC is the lowest concentration that inhibits growth of the organism.

In brackets after ≈: the same amount, converted by molar mass. Activity calls are given as the source filed them. The rule behind the calls is not given here.

The test system of assay [1] is Escherichia coli. Briefly: Induction of erm(C) expression in Escherichia coli JM109 harboring Staphylococcus aureus erm(C)-containing pERMZdelta2-4 mutant leader peptide cistrons reporter plasmid at 25 mg/ml after 36 hrs at 37 degC by disc-based beta-galactosidase reporter gene assay. The format is functional, organism-based.
Assay [2] deals with Escherichia coli. Briefly: Induction of erm(C) expression in Escherichia coli JM109 harboring Staphylococcus aureus erm(C)-containing pERMZ7 lacking codons 2 to 4 with additional mutations leader peptide cistrons reporter plasmid at 25 mg/ml after 36 hrs at 37 degC by disc-based beta-galactosidase reporter gene assay. The class given is functional, organism-based. (In general: In a reporter assay the amount or activity of a reporter protein is the signal.)

The subject of assay [3] is Escherichia coli. Briefly: Induction of erm(C) expression in Escherichia coli JM109 harboring Staphylococcus aureus erm(C)-containing pERMZalpha reporter plasmid after 36 hrs at 37 degC by disc-based beta-galactosidase reporter gene assay. The class given is functional, organism-based.
Assay [4] has as its system Escherichia coli. Briefly: Antimicrobial activity against Escherichia coli ZK796 harboring Staphylococcus aureus erm(C)-containing pERMCT plasmid. The format is functional.
In assay [5] the test system is Escherichia coli. Kind of assay: Antimicrobial activity against Escherichia coli ZK796 harboring empty plasmid. The format is functional.
Assay [6] concerns Escherichia coli. Kind of assay: Induction of erm(C) expression in Escherichia coli JM109 harboring Staphylococcus aureus erm(C)-containing pERMZalpha reporter plasmid at 10 mg/ml after 36 hrs at 37 degC by disc-based beta-galactosidase reporter gene assay. The format is functional, organism-based.
Assay [7] concerns Escherichia coli. Briefly: Induction of erm(C) expression in Escherichia coli ZK796 harboring Staphylococcus aureus erm(C)-containing pERMCT plasmid assessed as increase in A2058 dimethylation in 23S rRNA at 0.4 ug/ml after 4 hrs by primer extension assay. The class given is functional, organism-based.
Assay [8] relates to Escherichia coli. Kind of assay: Induction of erm(C) expression in Escherichia coli ZK796 harboring Staphylococcus aureus erm(C)-containing pERMCT plasmid assessed as increase in A2058 dimethylation in 23S rRNA at 0.4 ug/ml at 2 hrs by primer extension assay. The class given is functional, organism-based.
Assay [9] has as its system Escherichia coli. Kind of assay: Induction of erm(C) expression in Escherichia coli JM109 harboring Staphylococcus aureus erm(C)-containing pERMZalpha reporter plasmid at 1.5 mg/ml after 36 hrs at 37 degC by disc-based beta-galactosidase reporter gene assay. The class given is functional, organism-based.
Assay [10] deals with Escherichia coli. Kind of assay: Induction of erm(C) expression in Escherichia coli ZK796 harboring Staphylococcus aureus erm(C)-containing pERMCT plasmid assessed as increase in A2058 dimethylation in 23S rRNA at 25% MIC after 4 hrs by primer extension assay. The class given is functional, organism-based.
Assay [11] has as its system Escherichia coli. Kind of assay: Induction of erm(C) expression in Escherichia coli JM109 harboring Staphylococcus aureus erm(C)-containing pERMZalpha reporter plasmid after 36 hrs at 25 mg/ml 37 degC by disc-based beta-galactosidase reporter gene assay. The format is functional, organism-based.
In assay [12] the test system is Escherichia coli. Kind of assay: Induction of erm(C) expression in Escherichia coli ZK796 harboring Staphylococcus aureus erm(C)-containing pERMCT plasmid assessed as increase in A2058 dimethylation in 23S rRNA at 0.8 ug/ml after 30 mins by primer extension assay. The format is functional, organism-based.
For assay [13], the system named is Escherichia coli. Briefly: Induction of erm(C) expression in Escherichia coli JM109 harboring Staphylococcus aureus erm(C)-containing pERMZalpha reporter plasmid at 4.5 mg/ml after 36 hrs at 37 degC by disc-based beta-galactosidase reporter gene assay. The format is functional, organism-based.
The subject of assay [14] is Escherichia coli. Kind of assay: Induction of erm(C) expression in Escherichia coli JM109 harboring Staphylococcus aureus erm(C)-containing pERMZalpha reporter plasmid at 8 mg/ml after 36 hrs at 37 degC by disc-based beta-galactosidase reporter gene assay. The format is functional, organism-based.

As for `CC[C@H]1OC(=O)[C@H](C)C(=O)[C@H](C)[C@@H](O[C@@H]2O[C@H](C)C[C@H](N(C)C)[C@H]2O)[C@](C)(OC)C[C@@H](C)C(=O)[C@H](C)[C@@H]2N(NCCc3ccccc3)C(=O)O[C@@]21C`, the result in the assay on Escherichia coli [1] and with Escherichia coli [2] was inactive.

With `CC[C@H]1OC(=O)[C@H](C)[C@@H](O[C@H]2C[C@@](C)(OC)[C@@H](O)[C@H](C)O2)[C@H](C)[C@@H](O[C@@H]2O[C@H](C)C[C@H](N(C)C)[C@H]2O)[C@](C)(O)C[C@@H](C)/C(=N\OCOCCOC)[C@H](C)[C@@H](O)[C@]1(C)O`, the result in the assay on Escherichia coli [1] and with Escherichia coli [2] was inactive.

Turning to `CC[C@H]1OC(=O)[C@@](C)(F)C(=O)[C@H](C)[C@@H](O[C@@H]2O[C@H](C)C[C@H](N(C)C)[C@H]2O)[C@](C)(OC)C[C@@H](C)C(=O)[C@H](C)[C@@H]2N(CCCCn3cnc(-c4cccnc4)c3)C(=O)O[C@@]21C`, the result in the assay on Escherichia coli [1] and in the assay with Escherichia coli [2] was inactive. Moreover, the result in the assay on Escherichia coli [3] was Active.

On to `O=C(N[C@H](CO)[C@H](O)c1ccc([N+](=O)[O-])cc1)C(Cl)Cl` [CHLORAMPHENICOL], for which the MIC against Escherichia coli [4] and in the assay with Escherichia coli [5] was 2 µg/mL (≈ 6.19 µM) each time.

Take `CO[C@@H]1[C@@H](O[C@@H]2O[C@H](C)[C@@H](O[C@H]3C[C@@](C)(O)[C@@H](OC(=O)CC(C)C)[C@H](C)O3)[C@H](N(C)C)[C@H]2O)[C@@H](CC=O)C[C@@H](C)[C@@H](O)/C=C/C=C/C[C@@H](C)OC(=O)C[C@H]1OC(C)=O`: in the assay with Escherichia coli [6], the result was inactive.

As for SPIRAMYCIN, in the assay on Escherichia coli [6], the result was inactive.

For the compound `CC[C@H]1OC(=O)[C@H](C)C(=O)[C@H](C)[C@@H](O[C@@H]2O[C@H](C)C[C@H](N(C)C)[C@H]2O)[C@](C)(OC)C[C@@H](C)C(=O)[C@H](C)[C@H]2N(CCCCn3cnc(-c4cccnc4)c3)C(=O)O[C@]12C` [TELITHROMYCIN], the result in the assay with Escherichia coli [1], in the assay with Escherichia coli [8] and with Escherichia coli [2] was inactive. Moreover, the result in the assay on Escherichia coli [3], in the assay with Escherichia coli [7], with Escherichia coli [9] and in the assay on Escherichia coli [10] was Active. The minimum inhibitory concentration (MIC) with Escherichia coli [4] and against Escherichia coli [5] was 1.5 µg/mL (≈ 1.85 µM) each time.

`CC[C@H]1OC(=O)[C@H](C)[C@@H](O[C@H]2C[C@@](C)(OC)[C@@H](O)[C@H](C)O2)[C@H](C)[C@@H](O[C@@H]2O[C@H](C)C[C@H](N(C)C)[C@H]2O)[C@](C)(OC)C[C@@H](C)C(=O)[C@H](C)[C@@H]2N(CCCCn3cnc(-c4cccnc4)c3)C(=O)O[C@@]21C`: the result in the assay with Escherichia coli [6] and with Escherichia coli [10] was Active.

For the compound `CC[C@H]1OC(=O)[C@H](C)[C@@H](O[C@H]2C[C@@](C)(OC)[C@@H](O)[C@H](C)O2)[C@H](C)[C@@H](O[C@@H]2O[C@H](C)C[C@H](N(C)C)[C@H]2O)[C@](C)(O)C[C@@H](C)CN(C)[C@H](C)[C@@H](O)[C@]1(C)O`, the result with Escherichia coli [1], with Escherichia coli [11] and in the assay with Escherichia coli [2] was inactive. Moreover, the outcome with Escherichia coli [10] was Active.

As for `CC[C@H]1OC(=O)[C@H](C)C(=O)[C@H](C)[C@@H](O[C@@H]2O[C@H](C)C[C@H](N(C)C)[C@H]2O)[C@](C)(OC)C[C@@H](C)C(=O)[C@H](C)[C@@H]2N(NCCCc3ccnc4ccccc34)C(=O)O[C@@]21C`, the result in the assay on Escherichia coli [1] and in the assay on Escherichia coli [2] was inactive. The result in the assay with Escherichia coli [3] and in the assay on Escherichia coli [9] was Active.

With `CC[C@H]1OC(=O)[C@H](C)[C@@H](O[C@H]2C[C@@](C)(OC)[C@@H](O)[C@H](C)O2)[C@H](C)[C@@H](O[C@@H]2O[C@H](C)C[C@H](N(C)C)[C@H]2O)[C@](C)(O)C[C@@H](C)C(=O)[C@H](C)[C@@H](O)[C@]1(C)O` [ERYTHROMYCIN], the result in the assay on Escherichia coli [12], with Escherichia coli [13] and in the assay with Escherichia coli [10] was Active. The result in the assay with Escherichia coli [1] and in the assay with Escherichia coli [2] was inactive. In addition, the MIC in the assay with Escherichia coli [4] came out at 25 µg/mL (≈ 34.1 µM); in the assay with Escherichia coli [5], 3 µg/mL (≈ 4.09 µM).

With `CC[C@H]1OC(=O)[C@H](C)C(=O)[C@H](C)[C@@H](O[C@@H]2O[C@H](C)C[C@H](N(C)C)[C@H]2O)[C@](C)(OCC=Cc2cnc3ccccc3c2)C[C@@H](C)C(=O)[C@H](C)[C@H]2NC(=O)O[C@@]21C` [CETHROMYCIN], the outcome with Escherichia coli [1] and in the assay on Escherichia coli [2] was inactive. For the same compound, the result in the assay on Escherichia coli [3] and in the assay on Escherichia coli [10] was Active. Besides, the minimum inhibitory concentration (MIC) against Escherichia coli [4] and with Escherichia coli [5] was 1.5 µg/mL (≈ 1.96 µM) in each case.

For the compound `CC[C@H]1OC(=O)[C@H](C)[C@@H](O[C@H]2C[C@@](C)(OC)[C@@H](O)[C@H](C)O2)[C@H](C)[C@@H](O[C@@H]2O[C@H](C)C[C@H](N(C)C)[C@H]2O)[C@](C)(OC)C[C@@H](C)C(=O)[C@H](C)[C@@H]2N(NCCCc3ccnc4ccccc34)C(=O)O[C@@]21C`, the outcome in the assay on Escherichia coli [1] and in the assay with Escherichia coli [2] was inactive. The outcome with Escherichia coli [6] was Active.

For the compound `CC[C@H]1OC(=O)C[C@@H](O)[C@H](C)[C@@H](O[C@@H]2O[C@H](C)[C@@H](O[C@H]3C[C@@](C)(O)[C@@H](O)[C@H](C)O3)[C@H](N(C)C)[C@H]2O)[C@@H](CC=O)C[C@@H](C)C(=O)/C=C/C(C)=C/[C@@H]1CO[C@@H]1O[C@H](C)[C@@H](O)[C@@H](OC)[C@H]1OC`, the outcome in the assay on Escherichia coli [6] was inactive.

`CC[C@H]1OC(=O)[C@H](C)[C@@H](O[C@H]2C[C@@](C)(OC)[C@@H](O)[C@H](C)O2)[C@H](C)[C@@H](O[C@@H]2O[C@H](C)C[C@H](N(C)C)[C@H]2O)[C@](C)(OC)C[C@@H](C)C(=O)[C@H](C)[C@@H](O)[C@]1(C)O`: the outcome in the assay on Escherichia coli [1] and with Escherichia coli [2] was inactive. Besides, in the assay on Escherichia coli [14], the outcome was Active.
